Values joined by “and” are separate entries in the source; they are usually repeats but may differ in a detail not shown here. Identical values can stand only once. Like-named read-outs stand apart in the source and are kept apart here.
Key:
[1] = tested on: ARS-TST mouse model of depression; experiment: Acute restraint stress tail suspension test (ARS-TST); assay type: in vivo; conditions: male ICR mice, intraperitoneal, tested 10 minutes after treatment
Procedure: Male ICR mice (23±3 g) were purchased from BioLASCO (Taipei, Taiwan) at 4-5 weeks of age and allowed 5-7 days to acclimate to the animal research facility at Pharmacology Discovery Services (Taipei, Taiwan). Mice were housed in groups of 10 in a large cage (47×25×15 cm) on a 12-hour light cycle (lights on: 0700) and provided ad libitum food and water except during acute restraint stress and tail-suspension testing. Temperature was maintained at 20-24° C., and all rooms (colony and testing rooms) had similar lighting intensity. All aspects of this work including housing, experimentation, and animal disposal were performed in accordance with the “Guide for the Care and Use of Laboratory Animals: Eighth Edition” (The National Academies Press, Washington, DC, 2011) in a facility accredited by the Association for Assessment and Accreditation of Laboratory Animal Care. […]
Tail Suspension Test (TST) Procedure: Mice were individually suspended on the edge of a shelf, 58 cm above a tabletop, using adhesive tape placed approximately 1 cm from the tip of the tail, for a total duration of 7 minutes. Using a stopwatch, the experimenters blinded to treatment groups recorded the duration of immobility (defined as hanging passively and motionless) during the 5 minutes spanning from 2-7 minutes. The data from 0-2 minutes was not recorded. […]

[2] = molecular target: T1, 5-HT2C receptor (Homo sapiens, UniProt P28335); experiment: cell-based; conditions: agonist activity, Ca2+ flux, HEK293 cells
T1 construct: host or cells: HEK293
T1 sequence (P28335 33-458): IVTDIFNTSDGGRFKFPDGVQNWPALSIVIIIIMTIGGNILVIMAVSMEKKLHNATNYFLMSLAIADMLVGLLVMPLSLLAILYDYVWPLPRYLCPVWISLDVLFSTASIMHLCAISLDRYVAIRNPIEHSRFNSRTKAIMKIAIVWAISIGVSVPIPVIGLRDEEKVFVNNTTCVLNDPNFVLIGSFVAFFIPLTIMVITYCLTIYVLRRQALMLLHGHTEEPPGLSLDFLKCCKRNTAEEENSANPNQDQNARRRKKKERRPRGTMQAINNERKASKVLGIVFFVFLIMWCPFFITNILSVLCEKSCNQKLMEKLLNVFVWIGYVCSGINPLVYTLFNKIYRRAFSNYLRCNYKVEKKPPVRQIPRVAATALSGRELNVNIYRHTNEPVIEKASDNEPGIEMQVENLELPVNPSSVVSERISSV

[3] = molecular target: T2, 5-HT2A receptor (Homo sapiens, UniProt P28223); experiment: FLIPR Ca2+ flux functional assay, 5-HT2A; assay type: cell-based; conditions: agonist activity, Ca2+ flux, HEK293 cells
T2 construct: host or cells: HEK293
T2 sequence (P28223 whole entry): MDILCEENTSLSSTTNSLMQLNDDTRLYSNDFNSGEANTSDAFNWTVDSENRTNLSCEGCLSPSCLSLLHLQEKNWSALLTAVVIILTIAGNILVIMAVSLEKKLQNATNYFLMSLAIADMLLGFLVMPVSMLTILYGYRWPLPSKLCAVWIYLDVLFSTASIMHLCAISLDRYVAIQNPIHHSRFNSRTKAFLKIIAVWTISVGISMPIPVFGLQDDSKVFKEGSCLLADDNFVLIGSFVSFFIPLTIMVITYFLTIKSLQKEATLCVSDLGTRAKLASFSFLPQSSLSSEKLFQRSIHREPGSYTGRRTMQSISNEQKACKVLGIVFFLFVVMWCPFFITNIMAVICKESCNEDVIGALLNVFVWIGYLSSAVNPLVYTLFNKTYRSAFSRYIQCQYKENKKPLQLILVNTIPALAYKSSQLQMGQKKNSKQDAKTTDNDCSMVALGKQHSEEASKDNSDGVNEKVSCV

[4] = In vivo pharmacokinetics, plasma and brain exposure after IP dosing; design: species or system male C57BL/6 mice; conditions: for B:P Ratio, Individual / Plasma Concentration, Individual / concentration at 0.5 h / concentration at 0.083 h / concentration at 4 h / Kp at 0.083 h / Kp at 0.5 h / Kp at 4 h: 10 mg/kg; for Kp at 0.083 h / Kp at 0.5 h / Kp at 4 h: brain/plasma; for Cmax / Tmax / AUC(0-inf) / half-life: mouse, male C57BL/6 mice; for AUC(0-inf): read-out: Plasma AUC0-inf; for half-life: read-out: Apparent T1/2 (converted)
Procedure: The systemic exposure of selected examples was studied in non-fasted male C57BL/6 mice weighing between 18.9-25.5 g. Mice had access to food and water ad libitum throughout the pre- and post-dose sampling period.
On the day of dosing, the formulation of each compound was prepared by dissolving solid compound in phosphate buffer saline (50 mM) using vortexing, creating colourless solutions (pH 6.4-6.5) for each compound.
Compounds were dosed to mice by IP injection (10 mL/kg dose volume via a 27G needle; n=9 mice per compound) and blood samples were collected at 5 and 30 min; 1, 2 and 4 h post-dose (n=3 mice per time point for each compound). A maximum of three blood samples were obtained from each mouse, with plasma samples being taken via submandibular bleed (approximately 120 μL). Once collected, blood samples were centrifuged immediately, supernatant plasma was removed, and stored at −80° C. until analysis by LCMS. In addition, at the 5 and 30 min and 4 h post-dose time points, the whole brain was rapidly removed from the carcass soon after the blood collection. The whole brains were blotted to remove excess blood, placed into pre-weighed polypropylene vials, and weighed. The brains were snap frozen in dry ice and subsequently stored frozen (−80° C.) until analysis.
Concentrations of test compound in plasma and tissue samples were determined using an LCMS/MS method validated for linearity, accuracy, precision, matrix factor and recovery (Table 2). Test compound standard solutions were diluted from a concentrated stock solution (32 mM in H2O) using 50% can in H2O (v/v) and a calibration curve was prepared in a matched matrix to the test samples.
Plasma: The plasma calibration curve was prepared by spiking aliquots of blank mouse plasma (25 μL) with test compound standard solutions (5 μL) and internal standard solution (5 μL of diazepam, 5 μg/mL in 50% acetonitrile in water). Test plasma samples (25 μL) were thawed, mixed, and then spiked with internal standard solution (5 μL). Plasma protein precipitation was performed by addition of acetonitrile (3-fold volume ratio) and thorough vortex mixing. Samples were centrifuged (RCF=9391×g) for 3 minutes and the supernatant (90 μL) was collected for analysis.
Tissue: Pre-weighed tissue samples (brain) were homogenised using a glass rod in buffer containing an EDTA/potassium fluoride solution (0.1 M/4 mg/mL) as a stabilisation cocktail to minimise the potential for ex vivo degradation (3 mL cocktail/g tissue). The tissue homogenate was briefly centrifuged (RCF=79×g) for 10 seconds to separate the foam layer before transferring an aliquot of the tissue homogenate (200 μL) to a fresh Eppendorf tube for sample extraction. Calibration standards were prepared by spiking blank brain homogenate (200 μL) with the solution standards (10 μL) and the internal standard (10 μL). Study samples were similarly prepared, except that acetonitrile (10 μL) was added instead of solution standards to maintain the same volume. Protein precipitation was carried out by the addition of a 3-fold volume of acetonitrile, followed by vortex mixing and centrifugation (RCF=9391×g) for 3 min to recover the supernatant for analysis.
Replicate analysis: Triplicate analytical replicate (ARs) samples were prepared similarly to the standards for each sample type at three concentrations (50, 500 and 2,000 ng/ml) and repeat injections of these ARs were included throughout the analytical run to assess assay performance. The extraction of the test compound from the standards and ARs were conducted as described above.

[5] = 0.083 h, IP 10 mg/kg, individual mouse
[6] = 0.083 h, IP 10 mg/kg, individual mouse, read-out: Brain Parenchyma Concentration, Individual
[7] = 0.5 h, IP 10 mg/kg, individual mouse
[8] = 0.5 h, IP 10 mg/kg, individual mouse, read-out: Brain Parenchyma Concentration, Individual
[9] = 4 h, IP 10 mg/kg, individual mouse
[10] = 4 h, IP 10 mg/kg, individual mouse, read-out: Brain Parenchyma Concentration, Individual
[11] = male, C57BL/6, mouse, brain, ip, 0.083 h, n = 3, read-out: Brain Parenchyma Concentration, Mean ± SD
[12] = male, C57BL/6, mouse, brain, ip, 0.5 h, individual mouse, read-out: Brain Parenchyma Concentration, Individual
[13] = male, C57BL/6, mouse, brain, ip, 0.5 h, n = 3, read-out: Brain Parenchyma Concentration, Mean ± SD
[14] = male, C57BL/6, mouse, brain, ip, 4 h, n = 3, read-out: Brain Parenchyma Concentration, Mean ± SD
[15] = male, C57BL/6, mouse, ip, 0.083 h, individual mouse, read-out: B:P Ratio, Individual
[16] = male, C57BL/6, mouse, ip, 0.083 h, n = 3, read-out: B:P Ratio, Mean ± SD
[17] = male, C57BL/6, mouse, ip, 0.5 h, individual mouse, read-out: B:P Ratio, Individual
[18] = male, C57BL/6, mouse, ip, 0.5 h, n = 3, read-out: B:P Ratio, Mean ± SD
[19] = male, C57BL/6, mouse, ip, 4 h, individual mouse, read-out: B:P Ratio, Individual
[20] = male, C57BL/6, mouse, ip, 4 h, n = 3, read-out: B:P Ratio, Mean ± SD
[21] = male, C57BL/6, mouse, plasma, ip, 0.083 h, individual mouse, read-out: Plasma Concentration, Individual
[22] = male, C57BL/6, mouse, plasma, ip, 0.083 h, n = 3, read-out: Plasma Concentration, Mean ± SD
[23] = male, C57BL/6, mouse, plasma, ip, 0.5 h, individual mouse, read-out: Plasma Concentration, Individual
[24] = male, C57BL/6, mouse, plasma, ip, 0.5 h, n = 3, read-out: Plasma Concentration, Mean ± SD
[25] = male, C57BL/6, mouse, plasma, ip, 4 h, n = 3, read-out: Plasma Concentration, Mean ± SD

SMILES | immobility time [1] | Emax [2] [%] | Emax [3] [%] | B:P Ratio, Individual [4, 5] | Plasma Concentration, Individual [4, 5] | concentration at 0.5 h [4, 6] | B:P Ratio, Individual [4, 7] | Plasma Concentration, Individual [4, 7] | concentration at 0.5 h [4, 8] | B:P Ratio, Individual [4, 9] | Plasma Concentration, Individual [4, 9] | concentration at 0.5 h [4, 10] | concentration at 0.083 h [4, 11] [µM] | concentration at 0.5 h [4, 12] [µM] | concentration at 0.5 h [4, 13] [µM] | concentration at 4 h [4, 14] [µM] | Kp at 0.083 h [4, 15] | Kp at 0.083 h [4, 16] | Kp at 0.5 h [4, 17] | Kp at 0.5 h [4, 18] | other results
CCN(C)CCc1c[nH]c2ccc(OC)c(C)c12 [Example P-37, N-ethyl-2-(5-methoxy-4-methyl-1H-indol-3-yl)-N-methylethan-1-amine] | decrease immobility time | 53.1 | 80.3 | 6.9 and 8.6 | 2.21 µM and 2.12 µM | 31.6 µM and 15.2 µM and 18.1 µM | 18 and 16 | 1.15 µM and 1.48 µM | 20.6 µM and 24.3 µM | 15 | 0.0091 µM and 0.0104 µM | 0.134 µM and 0.152 µM | 21.6 ± 8.76 | 25.9 | 23.6 ± 2.74 | 0.129 ± 0.0255 | 9.4 | 8.3 ± 1.3 | 20 | 18 ± 2 | concentration at 4 h ([4]; male, C57BL/6, mouse, brain, ip, 4 h, individual mouse, read-out: Brain Parenchyma Concentration, Individual): 0.102 µM; Kp at 4 h [4, 19]: 13; Kp at 4 h [4, 20]: 14 ± 1.2; concentration at 0.083 h [4, 21]: 3.36 µM; concentration at 0.083 h [4, 22]: 2.56 ± 0.0691 µM; concentration at 0.5 h [4, 23]: 1.28 µM; concentration at 0.5 h [4, 24]: 1.3 ± 0.162 µM; concentration at 4 h ([4]; male, C57BL/6, mouse, plasma, ip, 4 h, individual mouse, read-out: Plasma Concentration, Individual): 0.0081 µM; concentration at 4 h [4, 25]: 0.0092 ± 0.0012 µM; Cmax ([4]; plasma, IP 10 mg/kg): 2.56 µM; Tmax ([4]; plasma, IP 10 mg/kg): 4.98 min; AUC(0-inf) ([4]; plasma, IP 10 mg/kg): 1.72 µM·h; half-life ([4]; IP 10 mg/kg, plasma): 30 min
CCN(C)CCc1c[nH]c2c(C)cc(OC)cc12 [Example P-51, N-ethyl-2-(5-methoxy-7-methyl-1H-indol-3-yl)-N-methylethan-1-amine] | decrease immobility time | 57.3 | 69.2 | 6.1 and 4.0 | 5.38 µM and 7.55 µM | 33.0 µM and 30.4 µM | 11 and 9.2 | 4.49 µM and 3.79 µM | 49.3 µM and 35.0 µM | 8.4 and 8.7 | 0.0254 µM and 0.0505 µM and 0.111 µM | 0.230 µM and 0.424 µM and 0.958 µM | 30.7 ± 2.2 | 25.5 | 36.6 ± 12 | 0.538 ± 0.377 | 4.5 | 4.9 ± 1.1 | 7.4 | 9.2 ± 1.8 | concentration at 0.083 h ([4]; male, C57BL/6, mouse, brain, ip, 0.083 h, individual mouse, read-out: Brain Parenchyma Concentration, Individual): 28.6 µM; Kp at 4 h [4, 19]: 9.1; Kp at 4 h [4, 20]: 8.7 ± 0.33; concentration at 0.083 h [4, 21]: 6.37 µM; concentration at 0.083 h [4, 22]: 6.43 ± 1.09 µM; concentration at 0.5 h [4, 23]: 3.46 µM; concentration at 0.5 h [4, 24]: 3.91 ± 0.529 µM; concentration at 4 h [4, 25]: 0.0622 ± 0.0439 µM; Cmax ([4]; plasma, IP 10 mg/kg): 6.43 µM; Tmax ([4]; plasma, IP 10 mg/kg): 4.98 min; AUC(0-inf) ([4]; plasma, IP 10 mg/kg): 5.39 µM·h; half-life ([4]; IP 10 mg/kg, plasma): 36 min
